US10294202B2, “Pyrrolidinones as herbicides” (FMC Corporation, priority 2013, dated 2019)

Assays:
[1] = system: cocklebur; assay: Test E preemergence herbicide test; type: in vivo, Xanthium strumarium; set-up: key: 0 = no effect, 100 = complete control
Source text: Seeds of plant species selected from corn (Zea mays), soybean (Glycine max), velvetleaf (Abutilon theophrasti), lambsquarters (Chenopodium album), wild poinsettia (Euphorbia heterophylla), pigweed, palmer (palmer pigweed, Amaranthus palmeri), waterhemp (common waterhemp, Amaranthus rudis), surinam grass (Brachiaria decumbens), crabgrass, large (large crabgrass, Digitaria sanguinalis), crabgrass, Brazil (Brazilian crabgrass, Digitaria horizontalis), panicum, fall (fall panicum, Panicum dichotomiflorum), foxtail, giant (giant foxtail, Setaria faberii), foxtail, green (green foxtail, Setaria viridis), goosegrass (Eleusine indica), johnsongrass (Sorghum halepense), ragweed (common ragweed, Ambrosia elatior), barnyardgrass (Echinochloa crus-galli), sandbur (southern sandbur, Cenchrus echinatus), arrowleaf […] rhombifolia), ryegrass, Italian (Italian ryegrass, Lolium multiflorum), dayflower, VA (Virginia dayflower, Commelina virginica), field bindweed (Convolvulus arvensis), morningglory (Ipomoea coccinea), nightshade (eastern black nightshade, Solanum ptycanthum), kochia (Kochia scoparia), nutsedge, yellow (yellow nutsedge, Cyperus esculentus), cocklebur (common cocklebur, Xanthium strumarium), smartweed (ladysthumb smartweed, Polygonum Persicaria) and beggarticks (hairy beggarticks, Bidens pilosa), were planted into a silt loam soil and treated preemergence with test chemicals formulated in a non-phytotoxic solvent mixture which included a surfactant. Treated plants and controls were maintained in a greenhouse for 21 days, after which time all species were compared to controls and visually evaluated. Plant response ratings, summarized in Table E, are based on a scale of 0 to 100 where 0 is no effect and 100 is complete control. A dash (-) response means no test result.

[2] = system: Rice, W.S. Ind; assay: Test F flood (paddy) test; type: in vivo, Oryza sativa Indica; details: 21 d, scale 0-100
Summary of the method: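 Greenhouse paddy, 30/27 °C day/night, 16-h light; sterilized Tama silt loam, 2.6% OM. Plants at 2.0–2.5 leaves; flood 3 cm, compound added directly to water. Visual score at 21 d, 0 = no effect, 100 = complete control, relative to untreated.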

[3] = system: flatsedge, rice; assay: Test F flood (paddy) test; type: in vivo, Cyperus iria; details: 21 d, scale 0-100
Source text: (§1) Three plastic pots (ca. 16-cm diameter) per rate were partially filled with sterilized Tama silt loam soil comprising a 35:50:15 ratio of sand, silt and clay and 2.6% organic matter. Separate plantings for each of the three pots were as follows. Seeds from the U.S. of monochoria (Monochoria vaginalis), sedge, umbrella (small-flower umbrella sedge, Cyperus difformis), bulrush, […] bulrush, Scirpus juncoides), and […] (purple […] coccinea), were planted into one 16-cm pot for each rate. Seeds from the U.S. of flatsedge, rice (rice flatsedge, Cyperus iria), sprangletop, Brdd. (bearded sprangletop, Leptochloa fascicularis), one stand of 9 or 10 water seeded rice seedlings (Rice, W.S. Jap, Oryza sativa cv. 'Japonica-[…]' or Rice, W.S. Ind, 'Indica'), and two stands of 3 or 4 seedlings of rice, transplanted (transplanted rice, Oryza sativa cv. 'Japonica-[…]') were planted into one 16-cm pot for each rate. Seeds from the U.S. of barnyardgrass (Echinochloa crus-galli), […] (common […], Alisma plantago-aquatica), and watergrass, late (late watergrass, Echinochloa oryzicola) were planted into one 16-cm pot for each rate. Plantings were sequential so that crop and weed species were at the 2.0 to 2.5-leaf stage at time of treatment. Potted plants were grown in a greenhouse with day/night temperature settings of 30/27° C., and supplemental balanced lighting was provided to maintain a 16-h photoperiod. Test pots were maintained in the greenhouse until test completion. At time of treatment, test pots were flooded to 3 cm above the soil surface, treated by application of test compounds directly to the paddy water, and then maintained at that water depth for the duration of the test. Effects of treatments on rice and weeds were visually evaluated by comparison to untreated controls after 21 d. Plant response ratings, summarized in Table F, are based on a scale of 0 to 100 where 0 is no effect and 100 is complete control. A dash (-) response means no test result.

[4] = system: redstem; assay: Test F flood (paddy) test; type: in vivo, Ammannia coccinea; details: 21 d, scale 0-100
Source text: as §1

[5] = system: canarygrass; assay: Test C postemergence herbicide test; type: in vivo, Phalaris minor
Source text: (§2) At the same time, plants selected from these crop and weed species and also barley (winter barley, Hordeum vulgare), […]), chickweed (common chickweed, Stellaria media), deadnettle (henbit deadnettle, Lamium amplexicaule), and canarygrass (littleseed canarygrass, Phalaris minor) were planted in pots containing Redi-Earth® planting medium (Scotts Company, 14111 Scottslawn Road, Marysville, Ohio 43041) comprising spaghnum peat moss, vermiculite, wetting agent and starter nutrients and treated with postemergence applications of test chemicals formulated in the same manner. Plants ranged in height from 2 to 18 cm (1- to 4-leaf stage) for postemergence treatments. Treated plants and controls were maintained in a greenhouse for 13 to 15 days, after which time all species were compared to controls and visually evaluated. Plant response ratings, summarized in Table C, are based on a scale of 0 to 100 where 0 is no effect and 100 is complete control. A dash (-) response means no test result.

[6] = system: windgrass; assay: Test C postemergence herbicide test; type: in vivo, Apera spica-venti
Source text: as §2

[7] = system: barley (winter barley); assay: Test C postemergence herbicide test; type: in vivo, Hordeum vulgare
Source text: as §2

[8] = 31 g ai/ha, scale 0 (no effect) to 100 (complete control)
[9] = 62 g ai/ha, scale 0 to 100 (0 no effect, 100 complete control)
[10] = 125 g ai/ha, scale 0 to 100 (0 no effect, 100 complete control)
[11] = 250 g ai/ha, scale 0 to 100 (0 no effect, 100 complete control)
[12] = 16 g ai/ha, scale 0 to 100 (0 no effect, 100 complete control)

O=C1NCC(c2ccc(Cl)c(Cl)c2)C1C(=O)Nc1ccccc1F (racemic) [Compound 14]
0: Plant response rating, Cocklebur ([1]; 62 g ai/ha) | Plant response rating, Cocklebur ([1]; 125 g ai/ha) | Plant response rating, Cocklebur ([1]; 250 g ai/ha)

O=C1NCC(c2ccc(F)c(F)c2)C1C(=O)Nc1cccc(F)c1F (racemic) [Compound 101]
0: Plant response rating, Rice, W.S. Ind ([2]; 64 g ai/ha)
20: Plant response rating, Rice, W.S. Ind ([2]; 125 g ai/ha)
35: Plant response rating, Rice, W.S. Ind ([2]; 250 g ai/ha)
60: Plant response rating, Rice, W.S. Ind ([2]; 500 g ai/ha)

O=C1NCC(c2cccc(C(F)F)c2)C1C(=O)Nc1ccccc1F (racemic) [Compound 210]
0: Plant response rating, Rice, W.S. Ind ([2]; 125 g ai/ha) | Plant response rating, Rice, W.S. Ind ([2]; 250 g ai/ha) | Plant response rating, Rice, W.S. Ind ([2]; 500 g ai/ha)

O=C1NCCC1C(=O)N(c1ccc(F)c(F)c1)c1ccccc1F (stereo not drawn) [Compound 5, N-(3,4-difluorophenyl)-N-(2-fluorophenyl)-2-oxo-3-pyrrolidinecarboxamide]
45: Plant response rating, Redstem ([4]; 1000 g ai/ha) | Plant response rating, Redstem ([4]; 2000 g ai/ha)
40: Plant response rating, Redstem ([4]; 500 g ai/ha)
0: Plant response rating, Flatsedge, Rice ([3]; 125 g ai/ha) | Plant response rating, Flatsedge, Rice ([3]; 250 g ai/ha) | Plant response rating, Flatsedge, Rice ([3]; 500 g ai/ha) | Plant response rating, Flatsedge, Rice ([3]; 1000 g ai/ha) | Plant response rating, Flatsedge, Rice ([3]; 2000 g ai/ha) | Plant response rating, Redstem ([4]; 125 g ai/ha) | Plant response rating, Redstem ([4]; 250 g ai/ha)

O=C1NCC(c2ccc(F)c(F)c2)C1C(=O)Nc1cccc(F)c1F (stereo not drawn) [Compound 17, N-(2,3-difluorophenyl)-4-(3,4-difluorophenyl)-2-oxo-3-pyrrolidinecarboxamide]
20: Plant response rating, Flatsedge, Rice ([3]; 125 g ai/ha) | Plant response rating, Flatsedge, Rice ([3]; 250 g ai/ha) | Plant response rating, Flatsedge, Rice ([3]; 500 g ai/ha)
35: Plant response rating, Flatsedge, Rice ([3]; 1000 g ai/ha) | Plant response rating, Redstem ([4]; 1000 g ai/ha)
40: Plant response rating, Flatsedge, Rice ([3]; 2000 g ai/ha) | Plant response rating, Redstem ([4]; 2000 g ai/ha)
0: Plant response rating, Canarygrass [5, 8] | Plant response rating, Canarygrass [5, 9] | Plant response rating, Canarygrass [5, 10] | Plant response rating, Canarygrass [5, 11] | Plant response rating, Windgrass [6, 8] | Plant response rating, Windgrass [6, 9] | Plant response rating, Windgrass [6, 10] | Plant response rating, Windgrass [6, 11] | Plant response rating, Cocklebur ([1]; 16 g ai/ha) | Plant response rating, Cocklebur ([1]; 31 g ai/ha) | Plant response rating, Cocklebur ([1]; 62 g ai/ha) | Plant response rating, Cocklebur ([1]; 125 g ai/ha) | Plant response rating, Barley [7, 8] | Plant response rating, Barley [7, 9] | Plant response rating, Barley [7, 10] | Plant response rating, Barley [7, 11] | Plant response rating, Redstem ([4]; 125 g ai/ha) | Plant response rating, Redstem ([4]; 250 g ai/ha) | Plant response rating, Redstem ([4]; 500 g ai/ha)

O=C1NCC(c2cc(F)c(F)c(F)c2)C1C(=O)Nc1cccc(F)c1F (stereo not drawn) [Compound 48]
0: Plant response rating, Canarygrass [5, 12] | Plant response rating, Canarygrass [5, 8] | Plant response rating, Canarygrass [5, 9] | Plant response rating, Canarygrass [5, 10] | Plant response rating, Windgrass [6, 12] | Plant response rating, Windgrass [6, 8] | Plant response rating, Windgrass [6, 9] | Plant response rating, Windgrass [6, 10] | Plant response rating, Barley [7, 12] | Plant response rating, Barley [7, 8] | Plant response rating, Barley [7, 9] | Plant response rating, Barley [7, 10]

O=C1NCC(c2cc(F)c(F)cc2F)C1C(=O)Nc1cccc(F)c1F (stereo not drawn) [Compound 50]
0: Plant response rating, Canarygrass [5, 8] | Plant response rating, Canarygrass [5, 9] | Plant response rating, Canarygrass [5, 10] | Plant response rating, Canarygrass [5, 11] | Plant response rating, Windgrass [6, 8] | Plant response rating, Windgrass [6, 9] | Plant response rating, Windgrass [6, 10] | Plant response rating, Windgrass [6, 11] | Plant response rating, Barley [7, 8] | Plant response rating, Barley [7, 9] | Plant response rating, Barley [7, 10] | Plant response rating, Barley [7, 11]

O=C1NCC(c2ccc(Cl)c(F)c2)C1C(=O)Nc1cccc(F)c1F (stereo not drawn) [Compound 52]
15: Plant response rating, Barley [7, 11]
0: Plant response rating, Canarygrass [5, 8] | Plant response rating, Canarygrass [5, 9] | Plant response rating, Canarygrass [5, 10] | Plant response rating, Canarygrass [5, 11] | Plant response rating, Windgrass [6, 8] | Plant response rating, Windgrass [6, 9] | Plant response rating, Barley [7, 8] | Plant response rating, Barley [7, 9] | Plant response rating, Barley [7, 10]
20: Plant response rating, Windgrass [6, 10] | Plant response rating, Windgrass [6, 11]

O=C1NCC(c2ccc(F)c(Cl)c2)C1C(=O)Nc1ccccc1F (stereo not drawn) [Compound 60]
0: Plant response rating, Canarygrass [5, 8] | Plant response rating, Canarygrass [5, 9] | Plant response rating, Canarygrass [5, 10] | Plant response rating, Windgrass [6, 8] | Plant response rating, Windgrass [6, 9] | Plant response rating, Windgrass [6, 10] | Plant response rating, Barley [7, 8] | Plant response rating, Barley [7, 9]
20: Plant response rating, Barley [7, 10]

O=C1NCC(c2ccc(C(F)(F)F)cc2)C1C(=O)Nc1cccc(F)c1F (stereo not drawn) [Compound 80, N-(2,3-difluorophenyl)-2-oxo-4-[4-(trifluoromethyl)phenyl]-3-pyrrolidinecarboxamide]
0: Plant response rating, Cocklebur ([1]; 16 g ai/ha) | Plant response rating, Cocklebur ([1]; 62 g ai/ha) | Plant response rating, Cocklebur ([1]; 125 g ai/ha) | Plant response rating, Cocklebur ([1]; 250 g ai/ha)

O=C1NC[C@H](c2cccc(C(F)(F)F)c2)[C@H]1C(=O)Nc1ccccc1F [Compound 204, (3R,4S)—N-(2-fluorophenyl)-2-oxo-4-[3-(trifluoromethyl)phenyl]-3-pyrrolidinecarboxamide]
0: Plant response rating, Rice, W.S. Ind ([2]; 125 g ai/ha)
10: Plant response rating, Rice, W.S. Ind ([2]; 250 g ai/ha)
20: Plant response rating, Rice, W.S. Ind ([2]; 500 g ai/ha)

O=C1NC[C@H](c2cccc(C(F)(F)F)c2)[C@H]1C(=O)Nc1cccc(F)c1F [Compound 206]
25: Plant response rating, Rice, W.S. Ind ([2]; 125 g ai/ha)
65: Plant response rating, Rice, W.S. Ind ([2]; 500 g ai/ha)
15: Plant response rating, Rice, W.S. Ind ([2]; 64 g ai/ha)
45: Plant response rating, Rice, W.S. Ind ([2]; 250 g ai/ha)
0: Plant response rating, Cocklebur ([1]; 31 g ai/ha) | Plant response rating, Cocklebur ([1]; 62 g ai/ha) | Plant response rating, Cocklebur ([1]; 125 g ai/ha) | Plant response rating, Cocklebur ([1]; 250 g ai/ha)

CN1CC(c2ccc(F)c(F)c2)C(C(=O)Nc2cccc(F)c2F)C1=O (stereo not drawn) [Compound 303]
25: Plant response rating, Rice, W.S. Ind ([2]; 125 g ai/ha)
30: Plant response rating, Redstem ([4]; 500 g ai/ha)
0: Plant response rating, Flatsedge, Rice ([3]; 62 g ai/ha) | Plant response rating, Flatsedge, Rice ([3]; 125 g ai/ha) | Plant response rating, Flatsedge, Rice ([3]; 250 g ai/ha) | Plant response rating, Flatsedge, Rice ([3]; 500 g ai/ha) | Plant response rating, Redstem ([4]; 62 g ai/ha) | Plant response rating, Redstem ([4]; 125 g ai/ha) | Plant response rating, Redstem ([4]; 250 g ai/ha)
40: Plant response rating, Rice, W.S. Ind ([2]; 250 g ai/ha)
70: Plant response rating, Rice, W.S. Ind ([2]; 500 g ai/ha)
